Test results from paper PMC4376724, “Differential Phenotypic and Functional Profiles of TcCA-2 -Specific Cytotoxic CD8^+ T Cells in the Asymptomatic versus Cardiac Phase in Chagasic Patients” (PLoS ONE, 2015).

Tested on: PBMC from HLA-A*02:01 Chagas disease patients and healthy donors
Test: Cytokine secretion test (Bio-Plex multiplex immunoassay) in PBMC supernatants
Type: cell-based, human
Details: 1 μM peptide, 30 h, non-peptide control subtracted
Description: For the screening of the recognition of TcCA-2 epitopes by Chagas disease patients, 10 HLA-A*02:01 adult patients in the asymptomatic phase of the disease (IND) were enrolled. For cytotoxicity, functional activity determinations and phenotypic characterization another group of 19 HLA-A*02:01 adults Chagas disease patients and 9 healthy donors were analyzed. These patients were at the chronic stage of the disease and were considered to be at the asymptomatic phase (IND, n = 8) if there was no evidence of having cardiac or gastrointestinal disorders. Chronic Chagas cardiomyopathy patients (CCC, n = 11) were stratified into G1 to G3 stages following Kuschnir classification according to clinical criteria and radiological, electrocardiographic and echocardiography analyses. The number of patients was the one recommended by the Hospital Ethical Committee. […] The patients were enrolled in both studies (functional and phenotypic characterization, IND n = 6 and CCC n = 7) when the available number of purified PBMC (limited by the cellular number isolated from each subject) was enough for both analyses. Another four CCC patients had to be enrolled to perform the phenotypic analysis in order to reach statistical significance.
Cytokine secretion (IL-4, IL-10, IL-6, IFN-γ, TNF-α) was determined in the supernatants of PBMC from Chagas disease patients and healthy donors, after in vitro stimulation with 1 μM of each peptide for 30 h at 37°C in RPMI supplemented with 10% iFBS as explained before. The secretion profile was determined by using a bead-based multiplex immunoassay system (Bio-Plex, Bio-Rad), following the manufacturer's instructions. The response was considered positive if an increase in the secretion of cytokines was at least three folds higher than the secretion by un-stimulated cells (basal secretion level) and at least, 4 pg/mL for IL-4, 2 pg/mL for IL-10, 15 pg/mL for IL-6 and 5 pg/mL for IFN-γ and TNF-α. The positive control consisted of 50 ng/mL Phorbol 12 myristate 13-acetate (PMA) and 500 ng/mL ionomycin (Sigma). Cytokine levels were quantified in each sample by using the Bio-Plex Manager software 4.1 (Bio-Rad).
Functional analysis of the epitope-specific CD8^+ T cells was carried out by the determination of the secretion profile of IFN-γ, TNF-α, IL-4, IL10 and IL-6 cytokines. […] CD8^+ T cells from 2 out of 11 patients responded to stimulation with peptide TcCA-2_273-281 by secreting IL-6. […] There was no secretion of IL-4 and IL-10 in PBMC after stimulation with any one of the four TcCA-2 peptides (data not shown). IFN-γ, TNF-α and IL6 cytokines secretion levels were higher in patients at the asymptomatic phase of the disease than in Chagas patients with associated cardiomyopathy.

Question: Which results are given for ALQVTNHRYL [TcCA-2_657-666]?
Answer: IFNγ (PBMC of patient CCC I 770): 0 pg/mL; IL6 (PBMC of patient CCC I 770): 1 pg/mL; TNFα (PBMC of patient CCC I 770): -6 pg/mL; IFNγ (PBMC of patient CCC I 861): 0 pg/mL; IL6 (PBMC of patient CCC I 861): -4 pg/mL; TNFα (PBMC of patient CCC I 861): -2 pg/mL; IFNγ (PBMC of patient CCC I 884): 0 pg/mL; IL6 (PBMC of patient CCC I 884): 0 pg/mL; TNFα (PBMC of patient CCC I 884): 0 pg/mL; IFNγ (PBMC of patient CCC III 509): 0 pg/mL; IL6 (PBMC of patient CCC III 509): -4 pg/mL; TNFα (PBMC of patient CCC III 509): -5 pg/mL; IFNγ (PBMC of patient IND 365): 2 pg/mL; IL6 (PBMC of patient IND 365): 10 pg/mL; TNFα (PBMC of patient IND 365): 14 pg/mL; IFNγ (PBMC of patient IND 388): 2 pg/mL; IL6 (PBMC of patient IND 388): 2 pg/mL; TNFα (PBMC of patient IND 388): -5 pg/mL; IFNγ (PBMC of patient IND 510): 0 pg/mL; IL6 (PBMC of patient IND 510): -3 pg/mL; TNFα (PBMC of patient IND 510): 1 pg/mL; IFNγ (PBMC of patient IND 535): 0 pg/mL; IL6 (PBMC of patient IND 535): -5 pg/mL; TNFα (PBMC of patient IND 535): -2 pg/mL; IFNγ (PBMC of patient IND 571): 1 pg/mL; IL6 (PBMC of patient IND 571): 0 pg/mL; TNFα (PBMC of patient IND 571): 0 pg/mL; IFNγ (PBMC of patient IND 917): -1 pg/mL; IL6 (PBMC of patient IND 917): -17 pg/mL; TNFα (PBMC of patient IND 917): -17 pg/mL; IFNγ (PBMC of subject HD 001): -2 pg/mL; IL6 (PBMC of subject HD 001): 1 pg/mL; TNFα (PBMC of subject HD 001): -6 pg/mL; IFNγ (PBMC of subject HD 004): 4 pg/mL; IL6 (PBMC of subject HD 004): -12 pg/mL; TNFα (PBMC of subject HD 004): -1 pg/mL; IFNγ (PBMC of subject HD 005): 0 pg/mL; IL6 (PBMC of subject HD 005): -58 pg/mL; TNFα (PBMC of subject HD 005): -4 pg/mL; IFNγ (PBMC of subject HD 006): 3 pg/mL; IL6 (PBMC of subject HD 006): -5 pg/mL; TNFα (PBMC of subject HD 006): 1 pg/mL; IFNγ (PBMC of subject HD 008): -3 pg/mL; IL6 (PBMC of subject HD 008): 3 pg/mL; TNFα (PBMC of subject HD 008): -21 pg/mL; IFNγ (PBMC of subject HD 011): 0 pg/mL; IL6 (PBMC of subject HD 011): -4 pg/mL; TNFα (PBMC of subject HD 011): 0 pg/mL; IFNγ (PBMC of subject HD 017): 0 pg/mL; IL6 (PBMC of subject HD 017): 0 pg/mL; TNFα (PBMC of subject HD 017): 0 pg/mL; IFNγ (PBMC of subject HD 340): 1 pg/mL; IL6 (PBMC of subject HD 340): 22 pg/mL; TNFα (PBMC of subject HD 340): 8 pg/mL; IFNγ (PBMC of subject HD 664): -3 pg/mL; IL6 (PBMC of subject HD 664): 0 pg/mL; TNFα (PBMC of subject HD 664): 0 pg/mL
